Values quoted from earlier work, collected in patent publication US20050084550A1, “Weight reduction and maintenance method for animals” (International Flora Technologies, priority 2001, published 2005).

Assays:
[1] = tested on: food intake in mice; settings: appetite suppressant
[2] = tested on: food intake in rats; settings: appetite suppressant
[3] = tested on: food intake in chickens; settings: appetite suppressant

CO[C@H]1[C@@H](OC)C[C@@H](O[C@@H]2O[C@H](CO)[C@@H](O)[C@H](O)[C@H]2O)/C(=C\C#N)[C@@H]1O [simmondsin]
food intake [1]: reduces food intake
food intake [2]: reduces food intake
food intake [3]: reduces food intake
solubility in hexane (hexane): not soluble
solubility in jojoba oil (jojoba oil): not soluble
